Where “and” joins values, the source holds several entries; their conditions need not be identical. Equal entries are not always repeated. Where two headings read alike, the source gives them in different places.
Key:
[1] = molecular target: T1, α5β2γ2 GABAAR (Mus musculus, UniProt P22723+P63137+Q8BHJ7); experiment: Whole-cell GABA-activated currents in transfected HEK-293 cells (patch clamp); format: cell-based, murine
T1 construct: expressed in transfected cells; host or cells: HEK-293
Procedure: (§1) Murine GABAAR α1-6, β1-3, γ2 and δ cDNAs subcloned into pRK-5 and pEGFP-C1 have been described previously ([Mortensen et al., 2011]).
(§2) Cells were transfected with equimolar ratios of cDNAs encoding for α1–6, β1–3 and δ or γ2 GABAA receptor subunits along with eGFP using a calcium phosphate method ([Mortensen et al., 2011]) 15–45 min after plating.
(§3) Patch electrodes had resistances of 4–5 MΩ and were filled with an internal solution containing (mM): 120 CsCl 1 MgCl2, 11 EGTA, 30 KOH, 10 HEPES, 1 CaCl2, and 2 K2ATP; pH – 7.2. HEK-293 cells were superfused with a saline solution containing (mM): 140 NaCl, 4.7 KCl, 1.2 MgCl2, 2.52 CaCl2, 11 Glucose, and 5 HEPES; pH 7.4. The saline for recording from primary neurons was supplemented with 2 mM kynurenic acid and pH adjusted to 7.4 to block all spontaneous excitatory post-synaptic currents (EPSCs). Membrane currents were filtered at 5 kHz (−3 dB, 6th pole Bessel, 36 dB/octave). HEK-293 cells were studied 48 h after transfection by voltage clamping cells at a holding potential of −20 to −40 mV with optimised series resistance (Rs, <10 MΩ) and whole-cell membrane capacitance compensation. Neuronal membrane currents were similarly recorded at a holding potential of −60 mV.
(§4) Spontaneous inhibitory postsynaptic currents (IPSCs) were recorded from dentate gyrus granule cells (DGGCs) with the same internal solution as above. Cells were voltage clamped at −60 mV and IPSCs were recorded using 5 kHz filtering with optimal series resistance and whole-cell capacitance compensation.

[2] = molecular target: T2, α2β2γ2 GABAARs (Mus musculus, UniProt P22723+P26048+P63137); format: binding, murine
T2 construct: expressed in transfected cells; host or cells: HEK-293
Procedure: as §1, §2
Live transfected HEK-293 cells were studied 48 h after transfection and washed with Krebs to remove cell culture media and incubated in 400 nM α-Bgtx coupled with Alexa Fluor 555 (α-Bgtx-AF555; Life Technologies) for 10 min at room temperature (RT). Cells were washed and fixed in 4% paraformaldehyde (PFA; Sigma) for 10 min at RT. The cells were imaged immediately post-fixation in saline using a Zeiss LSM 510 Meta confocal microscope and an Achroplan x40 water DIC objective (NA 0.8) as described previously ([Hannan et al., 2012]). This involved choosing the optimal z-section and acquiring images as a mean of 4 scans in 16-bits using a 543 nm Helium–Neon laser and a 560 nm long-pass filter for α-Bgtx-AF555 and a 488 Argon laser with a 505–530 nm band-pass filter for eGFP.
Confocal images were analysed using ImageJ (version 1.410) as described previously ([Hannan et al., 2013]). For each cell the surface membrane was identified by drawing a region-of-interest (ROI) in the eGFP channel and this was transferred to the α-Bgtx-AF555 channel and the mean membrane fluorescence values were determined. Mean background fluorescence was determined from a region devoid of cells. This was subtracted from the mean membrane fluorescence providing a mean corrected fluorescence intensity value. These values, for different combinations of receptors and drugs, were graphically plotted using Origin.
To identify the location of the α-Bgtx binding site on GABAARs, we pre-incubated HEK-293 cells expressing α2β2γ2 with a range of ligands that act at GABAARs and nAChRs, for 5 min at RT followed by co-incubation with α-Bgtx-AF555 for 10 min at RT (Fig. 4A). These ligands were selected to ‘protect by binding occupancy’ known binding site domains on GABAARs and nAChRs.
A, Schematic of the experimental protocol. 48 hrs after transfection, HEK-293 cells expressing eGFP and α2β2γ2 were incubated in drug for 5 min at RT followed by the addition of drug +400 nM α-Bgtx-AF555 for 10 min at RT to label cell surface receptors. The cells were washed to remove the excess α-Bgtx-AF555, fixed and imaged. B, Images of cells expressing α2β2γ2, stained with α-Bgtx-AF555 in the presence of 1 mM d-Tc, 1 mM nicotine, or 1 mM carbachol. C, Mean cell surface fluorescence of α-Bgtx-AF555 bound to surface GABAARs in the presence of d-Tc, nicotine or carbachol. […] Scale bars 5 μm.

[3] = molecular target: T3, α2β2γ2 GABAAR (Mus musculus, UniProt P22723+P26048+P63137); experiment: Whole-cell GABA-activated currents in transfected HEK-293 cells (patch clamp); format: cell-based, murine
T3 construct: expressed in transfected cells; host or cells: HEK-293
Procedure: as §1, §2, §3, §4

[4] = test system: native hippocampal GABAARs; format: cell-based, rat
Procedure: Dissociated hippocampal neurons were prepared from embryonic day 18 rat pups as described ([Hannan et al., 2012]). Briefly, hippocampi were dissected in ice-cold Hank's Balanced Salt Solution (HBSS) (Ca^2+/Mg^2+ free) before enzymatic dissociation in 0.1% (w/v) trypsin at 37 °C for 10 min followed by serial washes in pre-warmed HBSS to remove trypsin prior to trituration. Cells were mechanically dissociated using fire-polished glass Pasteur pipettes in plating medium composed of minimal essential medium (MEM) supplemented with 5% (v/v) fetal calf serum (FCS), 5% (v/v) horse serum, penicillin-G and streptomycin (200 units/ml and 200 μg/ml), 2 mM L-glutamine and 35 mM glucose. Cells were plated at a density of 10^6 per ml in plating medium on glass cover-slips previously coated with poly-D-lysine. The neurons were grown and maintained at 37 °C in a humidified 95% air/5% CO2 atmosphere.
After plating (30 min), the medium was removed and replaced with maintenance medium composed of Neurobasal-A supplemented with 1% (v/v) B-27, penicillin-G and streptomycin (100 units/ml and 100 μg/ml), 0.5% (v/v) Glutamax and 35 mM glucose.
as §3, §4

[5] = test system: dentate gyrus granule cells (DGGCs); experiment: Tonic inhibition (holding current, RMS noise) in dentate gyrus granule cells of acute hippocampal slices; format: cell-based, mouse
Procedure: (§5) Acute transverse brain slices were prepared from adult (P115–125) male C57BL/6J mice in accordance with the UK Animals (Scientific Procedures) Act 1986.
(§6) The brain was rapidly removed after terminal anaesthesia with isoflurane and immersed in ice-cold slicing solution composed of (mM): 85 NaCl, 2.5 KCl, 1 CaCl2, 4 MgCl2, 1.25 NaH2PO4, 26 NaHCO3, 75 sucrose, and 25 glucose, 2 kynurenic acid, pH – 7.4. The slicing solution was continuously bubbled with 95% […] and 5% CO2. Transverse 250 μm slices containing the ventral hippocampus were cut with a Leica VT1200S vibroslicer. The slicing solution was exchanged at 37 °C for 60 min with a recording solution containing (mM): 125 NaCl, 2.5 KCl, 2 CaCl2, 1 MgCl2, 1.25 NaH2PO4, 26 NaHCO3, 2 kynurenic acid, and 25 glucose, pH 7.4.
For tonic inhibition, to determine the average holding currents, a 60 s continuous current recording was sampled every 1 s, discarding epochs that coincided with IPSCs. Any effect of drugs on the holding current was defined by subtracting the average holding currents in control and during drug application.
The baseline noise (RMS) was calculated before and during drug treatment. This was estimated from a continuous (30 s) current recording, sampled every 100 ms. The median current was calculated every 5 s and values more than twice the standard deviation from the median (usually due to IPSCs) were eliminated. Baseline GABA-mediated current noise was defined by subtracting RMS values before and after drugs, e.g., α-Bgtx or bicuculline.

[6] = test system: dentate gyrus granule cells (DGGCs); experiment: Spontaneous IPSCs in dentate gyrus granule cells of acute hippocampal slices; format: cell-based, mouse
Procedure: as §5, §6, §4
IPSCs were detected and analysed using WinEDR and WinWCP (John Dempster, University of Strathclyde, UK). IPSC frequency was calculated using events detected over 60 s epochs of recording. […] This function provided the Gaussian mean amplitude current (μ) and standard deviation (σ). All the distributions were fitted using this function in Origin (Ver 6). The accuracy of the fits was checked by repeating the iterative non-linear fitting procedure after substituting the best-fit parameters obtained for the control and α-Bgtx datasets with new values.

[7] = molecular target: T4, α4β2δ receptors (Mus musculus, UniProt P22933+P63137+Q9D6F4); experiment: Whole-cell GABA-activated and leak currents in transfected HEK-293 cells (patch clamp); format: cell-based, murine
T4 construct: expressed in transfected cells; host or cells: HEK-293
Procedure: as §1, §2, §3, §4

[8] = molecular target: T5, α2β2 receptors (Mus musculus, UniProt P26048+P63137); experiment: Whole-cell GABA-activated currents in transfected HEK-293 cells (patch clamp); format: cell-based, murine
T5 construct: expressed in transfected cells; host or cells: HEK-293
Procedure: as §1, §2
as §3, with “Whole-cell GABA-activated currents were recorded from transfected HEK-293 cells or hippocampal neurons in culture at 12–14 DIV using patch clamp electrophysiology. Patch” for “Patch”

[9] = molecular target: T6, α1β2γ2 GABAAR (Mus musculus, UniProt P22723+P62812+P63137); experiment: as above; format: cell-based, murine
T6 construct: expressed in transfected cells; host or cells: HEK-293
Procedure: as §1, §2, §3, §4

[10] = test system: GABAARs expressed in HEK293 cells; format: cell-based, murine
[11] = molecular target: T7, α4β2γ2 GABAAR (Mus musculus, UniProt P22723+P63137+Q9D6F4); format: cell-based, murine
T7 construct: expressed in transfected cells; host or cells: HEK-293
Procedure: as §1, §2
as §3, with “HEK-293 cells were studied 48 h after transfection by voltage clamping cells at a holding potential of −20 to −40 mV with optimised series resistance (Rs, <10 MΩ) and whole-cell membrane capacitance compensation.” left out
as §4

[12] = 1 mM ligand, 5 min pre-incubation then + 400 nM α-Bgtx-AF555 10 min, n = 7, Fig. 4B–C

T4 sequence (P22933 17-449): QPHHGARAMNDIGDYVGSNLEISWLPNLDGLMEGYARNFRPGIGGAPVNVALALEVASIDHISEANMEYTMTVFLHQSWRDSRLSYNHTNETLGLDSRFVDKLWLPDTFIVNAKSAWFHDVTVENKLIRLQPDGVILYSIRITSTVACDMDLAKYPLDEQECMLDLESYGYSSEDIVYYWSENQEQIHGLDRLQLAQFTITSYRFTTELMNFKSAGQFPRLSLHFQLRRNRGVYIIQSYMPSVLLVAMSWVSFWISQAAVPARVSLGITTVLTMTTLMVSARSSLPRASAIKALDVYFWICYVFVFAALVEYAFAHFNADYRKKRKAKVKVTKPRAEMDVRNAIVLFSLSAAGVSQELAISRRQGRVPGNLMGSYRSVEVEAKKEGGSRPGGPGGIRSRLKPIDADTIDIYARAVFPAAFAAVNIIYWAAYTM
T4 sequence (P63137 25-512): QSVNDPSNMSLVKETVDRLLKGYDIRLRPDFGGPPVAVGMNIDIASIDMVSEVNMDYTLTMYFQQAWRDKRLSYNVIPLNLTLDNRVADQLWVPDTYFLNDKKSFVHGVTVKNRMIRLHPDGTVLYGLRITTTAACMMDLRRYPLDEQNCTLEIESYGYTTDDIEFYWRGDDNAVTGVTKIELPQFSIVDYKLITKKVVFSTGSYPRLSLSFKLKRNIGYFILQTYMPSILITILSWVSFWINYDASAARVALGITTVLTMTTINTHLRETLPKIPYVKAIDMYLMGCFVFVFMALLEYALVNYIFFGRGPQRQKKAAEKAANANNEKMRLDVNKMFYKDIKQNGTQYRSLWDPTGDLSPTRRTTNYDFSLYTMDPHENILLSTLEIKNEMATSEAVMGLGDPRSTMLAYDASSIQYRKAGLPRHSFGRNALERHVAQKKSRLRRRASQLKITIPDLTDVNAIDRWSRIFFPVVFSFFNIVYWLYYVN
T4 sequence (Q9D6F4 36-552): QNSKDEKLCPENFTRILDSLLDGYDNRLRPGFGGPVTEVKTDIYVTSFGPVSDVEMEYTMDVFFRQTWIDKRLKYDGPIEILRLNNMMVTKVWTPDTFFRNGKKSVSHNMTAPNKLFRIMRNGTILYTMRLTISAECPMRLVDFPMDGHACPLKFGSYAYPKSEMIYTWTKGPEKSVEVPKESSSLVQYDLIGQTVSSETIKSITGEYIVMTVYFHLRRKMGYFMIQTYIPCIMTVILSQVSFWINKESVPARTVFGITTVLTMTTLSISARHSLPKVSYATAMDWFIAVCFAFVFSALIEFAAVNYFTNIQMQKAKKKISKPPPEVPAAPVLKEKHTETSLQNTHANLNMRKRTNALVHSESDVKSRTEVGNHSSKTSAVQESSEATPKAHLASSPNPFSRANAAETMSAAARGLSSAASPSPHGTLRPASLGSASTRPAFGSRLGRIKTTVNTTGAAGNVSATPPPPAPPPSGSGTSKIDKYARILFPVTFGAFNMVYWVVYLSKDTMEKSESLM
T2 sequence (P26048 29-451): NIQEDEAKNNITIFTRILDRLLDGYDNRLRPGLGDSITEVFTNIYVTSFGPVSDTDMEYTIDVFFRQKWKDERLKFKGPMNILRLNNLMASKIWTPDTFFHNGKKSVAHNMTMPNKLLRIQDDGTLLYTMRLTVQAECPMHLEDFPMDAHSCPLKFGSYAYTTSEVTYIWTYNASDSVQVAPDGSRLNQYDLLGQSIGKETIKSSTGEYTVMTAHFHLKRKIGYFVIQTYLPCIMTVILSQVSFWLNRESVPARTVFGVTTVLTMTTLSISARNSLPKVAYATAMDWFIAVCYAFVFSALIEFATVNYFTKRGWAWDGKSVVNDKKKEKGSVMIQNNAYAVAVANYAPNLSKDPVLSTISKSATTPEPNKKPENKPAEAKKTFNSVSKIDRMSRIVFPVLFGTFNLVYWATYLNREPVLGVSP
T2 sequence (P63137 25-512): as the sequence (P63137 25-512) above
T2 sequence (P22723 39-474): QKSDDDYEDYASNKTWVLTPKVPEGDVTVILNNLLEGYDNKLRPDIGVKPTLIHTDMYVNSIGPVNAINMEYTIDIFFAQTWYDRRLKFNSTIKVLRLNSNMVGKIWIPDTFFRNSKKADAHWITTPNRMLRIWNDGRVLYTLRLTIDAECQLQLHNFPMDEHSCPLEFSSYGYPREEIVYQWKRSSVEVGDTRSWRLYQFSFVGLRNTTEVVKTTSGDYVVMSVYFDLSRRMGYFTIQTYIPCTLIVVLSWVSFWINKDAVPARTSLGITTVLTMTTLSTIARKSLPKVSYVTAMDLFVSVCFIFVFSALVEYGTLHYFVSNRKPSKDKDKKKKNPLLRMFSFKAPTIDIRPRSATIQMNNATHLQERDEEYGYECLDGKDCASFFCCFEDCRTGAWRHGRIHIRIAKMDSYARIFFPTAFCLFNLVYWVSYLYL
T1 sequence (P22723 39-474): as above
T1 sequence (Q8BHJ7 32-463): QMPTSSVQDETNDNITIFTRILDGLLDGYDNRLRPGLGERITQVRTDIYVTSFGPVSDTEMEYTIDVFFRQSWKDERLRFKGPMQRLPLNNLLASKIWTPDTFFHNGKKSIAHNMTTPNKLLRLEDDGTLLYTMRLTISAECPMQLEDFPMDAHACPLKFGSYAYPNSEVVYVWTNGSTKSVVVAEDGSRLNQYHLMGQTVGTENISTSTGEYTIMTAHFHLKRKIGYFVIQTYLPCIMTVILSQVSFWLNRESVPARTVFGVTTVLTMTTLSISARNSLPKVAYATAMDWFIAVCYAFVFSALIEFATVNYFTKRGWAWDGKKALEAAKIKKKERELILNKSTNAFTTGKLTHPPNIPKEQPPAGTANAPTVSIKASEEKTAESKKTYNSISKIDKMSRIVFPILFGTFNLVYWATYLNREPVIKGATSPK
T1 sequence (P63137 25-512): as the sequence (P63137 25-512) above
T3 sequence (P63137 25-512): as above
T3 sequence (P26048 29-451): as the sequence (P26048 29-451) above
T3 sequence (P22723 39-474): as the sequence (P22723 39-474) above
T5 sequence (P26048 29-451): as the sequence (P26048 29-451) above
T5 sequence (P63137 25-512): as the sequence (P63137 25-512) above
T7 sequence (P63137 25-512): as above
T7 sequence (P22723 39-474): as the sequence (P22723 39-474) above
T7 sequence (Q9D6F4 36-552): as the sequence (Q9D6F4 36-552) above
T6 sequence (P63137 25-512): as the sequence (P63137 25-512) above
T6 sequence (P22723 39-474): as the sequence (P22723 39-474) above
T6 sequence (P62812 28-455): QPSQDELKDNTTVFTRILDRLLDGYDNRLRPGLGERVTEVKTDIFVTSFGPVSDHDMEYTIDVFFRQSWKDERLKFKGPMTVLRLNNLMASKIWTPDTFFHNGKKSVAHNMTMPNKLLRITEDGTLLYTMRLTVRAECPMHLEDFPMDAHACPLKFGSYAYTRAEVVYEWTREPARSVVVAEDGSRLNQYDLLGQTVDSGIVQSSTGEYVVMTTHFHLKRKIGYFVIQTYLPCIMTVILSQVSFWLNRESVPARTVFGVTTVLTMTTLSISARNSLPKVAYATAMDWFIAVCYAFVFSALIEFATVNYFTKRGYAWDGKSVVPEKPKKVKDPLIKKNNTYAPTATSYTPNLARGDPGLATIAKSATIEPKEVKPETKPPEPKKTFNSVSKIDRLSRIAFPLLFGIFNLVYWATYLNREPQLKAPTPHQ

## NCCCC(=O)O [GABA, γ-aminobutyric acid]
[1]; n = 5
  EC50: 2.44 µM
[2]
  α-Bgtx-AF555 binding in presence of ligand: 34.9 ± 7.1 % of control

## CCN1C[C@]2(COC(=O)c3ccccc3N3C(=O)C[C@H](C)C3=O)CC[C@H](OC)[C@@]34[C@@H]5C[C@H]6[C@H](OC)[C@@H]5[C@](O)(C[C@@H]6OC)[C@@](O)([C@@H](OC)[C@H]23)[C@@H]14 [MLA, methyllaconitine]
[3]; 1 nM MLA pre-applied 1 min before co-application with GABA
  effect on amplitude of GABA-activated currents: did not affect the amplitude
[4]
  effect on currents activated by sub-maximal GABA: < 1 % of control
[4]; 10 μM GABA, 1 nM MLA, 1 min pre-incubation then co-applied, n = 6, P > 0.05
  inhibition of GABA-activated currents: 0.8 ± 1.7 % inhibition
[5]; 1 nM MLA
  DGGC holding current: slightly reduced
[6]; 1 nM MLA, n = 5, control 4.12 ± 0.9 Hz, P > 0.05
  frequency of IPSCs: 3.75 ± 1.2 Hz
[6]; 1 nM MLA, n = 6098 events, control −30.82 pA, P > 0.05
  median IPSC amplitude: −30.21 pA

## Oc1noc2c1CCNC2 [THIP]
[7]; 300 μM THIP
  response compared with maximal GABA (1 mM): superagonist ability

## [Zn+2] [Zn^2+]
[3]
  inhibition of submaximal GABA currents by Zn^2+: 37.4 ± 8.9%
[8]
  inhibition of submaximal GABA currents by Zn^2+: 90.8 ± 4.44%

## CN1CCc2cc3c(cc2[C@H]1[C@@H]1OC(=O)c2c1ccc1c2OCO1)OCO3 [bicuculline]
[5]; 50 μM bicuculline applied after α-Bgtx, n = 6, P < 0.05
  RMS noise: 2.74 ± 0.34 pA
[5]; 50 μM bicuculline, n = 7
  average tonic current revealed (change in holding current): 9.31 ± 2.52 pA

## C[N+](C)(C)CCOC(N)=O [carbachol]
[2]; [12]
  α-Bgtx-AF555 binding in presence of ligand: 100.5 ± 11.3 % of control

## COc1cc2c3cc1Oc1cc(ccc1O)C[C@@H]1c4c(cc(OC)c(O)c4Oc4ccc(cc4)C[C@@H]3N(C)CC2)CC[N+]1(C)C [d-Tc, d-tubocurarine]
[4]
  inhibition of whole-cell GABA-activated currents: 92 ± 4 % inhibition
[2]; 1 mM d-Tc, n = 6, Fig. 4D–E
  α-Bgtx-AF555 binding in presence of ligand: 7.1 ± 1.9 % of control
[2]; [12]
  α-Bgtx-AF555 binding in presence of ligand: 1.8 ± 1.3 % of control

## CN1CCC[C@H]1c1cccnc1 [nicotine]
[2]
  α-Bgtx-AF555 binding in presence of ligand: 90.5 ± 11.4 % of control

## CCCC(C)C1(CC)C(=O)NC(=O)NC1=O (centres unmarked) [pentobarbital]
[4]; 20 μM pentobarbital
  modulation of 1 μM GABA currents: potentiated

## picrotoxin
[2]
  α-Bgtx-AF555 binding in presence of ligand: 106.7 ± 14.9 % of control

## α-bungarotoxin [α-Bgtx]
[1]
  inhibition of submaximal GABA currents: 15.3 ± 5.9%
[9]
  inhibition of submaximal GABA currents: 23.8 ± 3%
[4]
  inhibition of GABA currents: 33 ± 9%
  reversibility of inhibition: reversible
[5]
  RMS noise: 3.39 ± 0.59 pA
  change in DGGC holding current: 1.27 ± 1.21 pA
[7]
  potentiation of submaximal GABA responses: 46 ± 5% and 40 ± 6%
  reduction in leak current in HEK-293 cells expressing α4β2δ relative to reduction of the leak in DGGCs: over 40 fold
  reduction of leak current: 56 ± 3.7 pA and 75 ± 13 pA
[10]
  reduction of saturating GABA currents: 13.0 ± 5.9%
[6]
  IPSC amplitude distribution, Gaussian peak 1 mean: −13.66 pA
  IPSC amplitude distribution, Gaussian peak 2 mean: −19.01 pA
  frequency of IPSCs: 2.17 ± 0.34 Hz
  median IPSC amplitude: −23.19 pA
[11]
  inhibition of submaximal GABA currents: 41.3 ± 4.4%

From publication PMC4398322, “Snake neurotoxin α-bungarotoxin is an antagonist at native GABAA receptors” (Neuropharmacology, 2015)
